Results on 1 compound are retold here after paper PMC3310374 (Bioconjugate Chemistry, 2012).

For this test, the system named is PC-3 cells. The experiment in a line: Flow cytometric analysis of hypoxic cell induction. The format is cell-based, human. To be noted: for Mean fluorescence (FITC antibody against pimonidazole adducts): 10 μM pimonidazole, 2 h.

Molecules are shown by their SMILES.

Turning to `O=[N+]([O-])c1nccn1CC(O)CN1CCCCC1` (stereo not drawn) [pimonidazole], the “Increase in pimonidazole binding, hypoxic compared to normoxic” value (PC-3 cells, flow cytometry) is given as “fivefold increase”. For the same compound, the “Mean fluorescence (FITC antibody against pimonidazole adducts)” value came to 286 (hypoxic PC-3 cells (94.9% N2, 0.1% O2, 5% CO2)) and 56.8 (normoxic PC-3 cells (95% air, 5% CO2)).
